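Protocol summary: plate cells (96-well), add compound at 5 concentrations, incubate 48 h, interpolate endpoints linearly. GI50: concentration for 50% inhibition of growth. TGI denotes the concentration required for complete inhibition of growth.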
Experiments:
Experiment in all cases: NCI anticancer screen, dose series, 48 h
RXF-631 renal = test system: RXF-631 renal
DMS 273 small cell lung = test system: DMS 273 small cell lung
DLD-1 colon = test system: DLD-1 colon
DMS 114 small cell lung = test system: DMS 114 small cell lung
HOP-18 NSCLC = test system: HOP-18 NSCLC
KM20L2 colon = test system: KM20L2 colon
LXFL 529 NSCLC = test system: LXFL 529 NSCLC
XF 498 CNS = test system: XF 498 CNS
MDA-N = test system: MDA-N

Row | SMILES | TGI (RXF-631 renal) | TGI (DMS 273 small cell lung) | TGI (DLD-1 colon) | TGI (DMS 114 small cell lung) | TGI (HOP-18 NSCLC) | TGI (KM20L2 colon) | TGI (LXFL 529 NSCLC) | TGI (XF 498 CNS) | other results
1 | COCCNC(=O)C1C(=O)C(=O)N(CCOC)C1=O (stereo not given) | > 100 µM | > 100 µM | > 100 µM | > 100 µM | > 100 µM | > 100 µM | > 100 µM |  | 
2 | Cc1ccc(C)c(N2C(=O)C(=O)C(c3nc4ccccc4s3)/C(=N/NC(=O)NN)C2=O)c1 (stereo not given) | > 100 µM | > 100 µM | > 100 µM | > 100 µM | > 100 µM | > 100 µM | > 100 µM | > 100 µM | 
3 | Cc1ccc(/C(C#N)=C/c2cccc([N+](=O)[O-])c2)cc1 |  |  |  |  |  |  |  |  | TGI (MDA-N): > 100 µM
4 | C[CH2][Sn]([CH2]C)([O]C(=O)c1ccccc1OC)[O][Sn]([CH2]C)([CH2]C)[O]C(=O)c1ccccc1OC |  | > 100 µM | > 100 µM | > 100 µM | > 100 µM | > 100 µM | 28.5 µM | > 100 µM | GI50 (XF 498 CNS): > 100 µM; GI50 (DMS 273 small cell lung): > 100 µM; GI50 (DLD-1 colon): 50.2 µM; GI50 (DMS 114 small cell lung): 30 µM; GI50 (HOP-18 NSCLC): > 100 µM; GI50 (KM20L2 colon): > 100 µM; GI50 (LXFL 529 NSCLC): 15.1 µM
5 | COC(=O)[C@@]1(C(C)CC(=O)O)CCCCC1=O (stereo not given in full) |  | 39.7 µM | > 100 µM | > 100 µM | > 100 µM | > 100 µM | > 100 µM | > 100 µM | 
6 | C=C1CCC2[C@@H](CCC3[C@]2(C)CCC[C@]3(C)C(=O)OC)C1CC=O (stereo not given in full) | 37.2 µM | 40.7 µM | 42.9 µM | 34.7 µM | 29 µM | 35.7 µM | 30.1 µM | 28.6 µM | GI50 (RXF-631 renal): 20.9 µM
7 | O=C(O)Cc1cccnc1 |  |  |  |  |  |  |  |  | TGI (MDA-N): > 100 µM
8 | NC(=O)C(=O)C1CCC2=C(Sc3ccccc3N2)C1=O (stereo not given) | > 100 µM |  | > 100 µM | > 100 µM |  | > 100 µM | > 100 µM |  | 
9 | Nc1c([N+](=O)[O-])nc(Cl)c2nncn12 | > 100 µM | 31.3 µM | > 100 µM | > 57.4 µM | > 100 µM | > 100 µM | > 100 µM | > 100 µM | 
10 | N#CC(C#N)c1ccc(C(=O)N2CCC[C@H]2CO)cc1 | > 100 µM | > 100 µM | > 100 µM | > 100 µM | > 100 µM | > 100 µM | > 100 µM |  | 
11 | COc1ccc(-c2cc(C(=O)Nc3ccc(C)c(C)c3)nc(NC#N)n2)cc1 |  | > 100 µM | > 100 µM | > 100 µM | > 100 µM | > 100 µM | > 100 µM | > 100 µM | 
12 | Cc1ccccc1NC(=O)C(=O)C(C#N)c1ccccc1C (stereo not given) |  | > 100 µM | > 100 µM | > 100 µM | > 100 µM | > 100 µM | > 100 µM | > 100 µM | 
13 | COCOCC/C=C/C=O |  |  | > 100 µM | > 100 µM | > 100 µM | > 100 µM | > 100 µM | > 100 µM | 
14 | Cc1ccc(S(=O)(=O)N/N=C(/CC(=O)c2c(C)n([O-])c3ccccc3[n+]2=O)C(=O)Nc2ccccc2C)cc1 |  | > 100 µM | > 100 µM | > 100 µM | > 100 µM | > 100 µM | > 100 µM |  | 
15 | CC1(C)CC(=O)C(/C(=N/NC(=S)NN)C(=O)Nc2nc3ccc([N+](=O)[O-])cc3s2)C(=O)C1 |  |  | > 100 µM | > 100 µM | > 100 µM | > 100 µM | > 100 µM | > 100 µM | 
16 | CC(C)(Br)C(=O)C(Br)Br | 27.1 µM | 26.9 µM | 3.34 µM | 18.1 µM |  | 32.2 µM | 5.87 µM | 23.8 µM | TGI (MDA-N): 9.54 µM
17 | NC(=O)NNC(=O)NC12CC3CC(CC(C3)C1)C2 |  | > 100 µM | > 100 µM | > 100 µM | > 100 µM | > 100 µM | > 100 µM | > 100 µM | 
18 | N#CC(c1ccccn1)c1nc2ccccc2[nH]1 (stereo not given) |  |  | > 100 µM | > 100 µM |  |  | > 100 µM | > 100 µM | 
19 | Cc1cc[n+]2c(c1)-c1cc(C)cc[n+]1CC2 |  |  |  |  |  |  |  |  | TGI (MDA-N): > 100 µM

Row | SMILES | TGI (RXF-631 renal) | TGI (DMS 273 small cell lung) | TGI (DLD-1 colon) | TGI (DMS 114 small cell lung) | TGI (HOP-18 NSCLC) | TGI (KM20L2 colon) | TGI (LXFL 529 NSCLC) | TGI (XF 498 CNS) | other results
20 | O=C(O)/C=C/c1nc2ccccc2c(=O)o1 |  | > 100 µM | > 100 µM | > 100 µM | > 100 µM | > 100 µM | > 100 µM |  | 
21 | Cc1cc(C)nc(NS(=O)(=O)c2ccc(Nc3c4ccccc4nc4c(C(=O)Nc5ccc(S(=O)(=O)N=C(N)N)cc5)cccc34)cc2)n1 | > 100 µM | > 100 µM | > 100 µM | > 100 µM | > 100 µM | > 100 µM |  |  | 
22 | Cc1cc(N=Nc2ccccc2C)ccc1N |  |  |  |  |  |  |  |  | TGI (MDA-N): 39.6 µM
23 | O=S(=O)(/C=C/C(=C/c1ccccc1)S(=O)(=O)c1ccccc1)c1ccccc1 | 2.31 µM | 2.9 µM |  | 3.32 µM |  |  | 3.19 µM | 3.09 µM | 
24 | O=C(CCC1C(=O)NC(=S)NC1=O)c1ccc2ccccc2c1 |  | > 100 µM | > 100 µM | > 100 µM | > 100 µM | > 100 µM | > 100 µM |  | 
25 | CC1(c2ccccc2Cl)C(C#N)C(=O)NC(=O)C1C#N (stereo not given) |  | > 100 µM | > 100 µM | > 100 µM |  | > 100 µM | > 100 µM |  | 
26 | CC(C)=CC(=O)N(C)C1C2CN3CCC(O2)C13 (stereo not given) |  | > 100 µM | > 100 µM | > 100 µM | > 100 µM | > 100 µM | > 100 µM | > 100 µM | 
27 | CCN(CC)c1ccc2c(c1)Oc1ccc(N(CC)CC)cc1C21Oc2ccccc2-c2c1c1ccccc1n2CC (stereo not given) | > 100 µM | > 100 µM | > 100 µM | 3.61 µM | > 100 µM | > 100 µM | > 100 µM | 4.08 µM | 
28 | OCCNC1c2cc(Cl)ccc2-c2c(Cl)cc(Cl)cc21 (stereo not given) |  |  |  |  |  |  |  |  | TGI (MDA-N): > 100 µM
29 | Cc1nc(C(=O)O)c2ccccc2n1 |  | > 100 µM | > 100 µM | > 100 µM |  | > 100 µM | > 100 µM |  | 
30 | C[N+](C)(C)CC1CCCC1=O (stereo not given) | 32.1 µM | 19.9 µM | 3.15 µM | 8.31 µM | 3.3 µM | 7.79 µM | 2.57 µM | 3.87 µM | TGI (MDA-N): 3.21 µM
31 | CCC1(O)C(=O)OCc2c1cc1n(c2=O)Cc2cc3c(NC(=O)CN)cccc3nc2-1 (stereo not given) |  | 1.83 µM | > 100 µM |  | > 24.3 µM |  | > 75 µM | 25.4 µM | GI50 (XF 498 CNS): 2.24 µM; GI50 (DMS 273 small cell lung): 0.0963 µM; GI50 (DLD-1 colon): 11.2 µM; GI50 (MDA-N): 4.94 µM; TGI (MDA-N): > 55.8 µM; GI50 (HOP-18 NSCLC): 1.02 µM; GI50 (KM20L2 colon): 1.77 µM; GI50 (LXFL 529 NSCLC): 5.3 µM
32 | COC1C(N)C(OC2C(Oc3cccc4c(O)c5c(=O)oc6ccc(C)c7c(=O)oc(c34)c5c67)OC(C)C(O)C2(C)O)OC(C)C1O (stereo not given) | 1.45 µM | 0.399 µM | 0.726 µM | 0.229 µM | 3.08 µM | 1.21 µM | 0.148 µM | 0.208 µM | TGI (MDA-N): 0.541 µM
33 | C=CNC(=O)NC(=O)CSc1nnc(-c2ccccc2NC(=O)C(F)(F)F)c(=O)[nH]1 |  | > 100 µM | 22.7 µM | 43.1 µM |  |  | > 100 µM | > 100 µM | 
34 | CC12CCC(=O)N1c1ccc([N+](=O)[O-])cc1N2 (stereo not given) |  | > 100 µM | > 100 µM | > 100 µM | > 100 µM | > 100 µM | > 100 µM |  | 
35 | O=C(c1nc2ccccc2[nH]c1=O)C(O)c1ccccc1 (stereo not given) |  | > 100 µM | > 100 µM | > 100 µM |  | > 100 µM | > 100 µM |  | 
36 | CC(=O)OCCOCNC(=S)N/N=C/c1cc(Br)cs1 | > 100 µM | > 100 µM | > 100 µM | > 100 µM | > 100 µM | > 100 µM | > 100 µM | > 100 µM | 
37 | OC(C#Cc1ccccc1)(c1ccccc1)c1ccccc1 |  |  |  |  |  |  |  |  | TGI (MDA-N): 61.7 µM

Reference: PubChem BioAssay (NCI)
